Structures can show the parent of a compound that is named as a salt.

Common to all, as to assay type: in vivo
One data set relates to mice. In words: Tail-flick test (radiant heat). Here is the method: Radiant heat was applied using a beam of high-intensity light focused on a tail spot. The response time, defined as the interval between the onset of the stimulus and the tail flick, was measured electronically(to the nearest 0.1 second). The beam intensity was set at a level giving a mean control reaction time of 3.8±0.4 seconds. […] The percentage of inhibition was determined by the following equation: Inhibition(%) =(Reaction time of the treated group - Reaction time of the control group)/(Reaction time of the control group)x 100 [formula]
A general note: Thermal pain tests record how soon the animal reacts.

The subject of data set [1] is KTC-ICR mice. In words: acetic acid induced writhing test. As to conditions: Mus musculus; oral; 0.9% acetic acid i.p. 60 minutes later; writhings during 10 minutes; mice 20 to 25g; Examples 1 to 32. Here is the method: (§1) The KTC-ICR mice derived from Charles River Breeding Laboratory in the United States and provided by Experimental Animal Laboratory of Korea Research Institute of Chemical Technology were used as test animals. […] They were tested after having been adjusted to the testing environment for a week. Food and water were given freely; and illumination was maintained on a 12-hour cycle.
(§2) Experiments were performed in two ways: that is, the acetic acid induced writhing test and the phenyl-1,4-benzoquinone(PBQ) induced writhing test.
Solutions for the acetic acid induced writhing test were prepared by dissolving one of the end products prepared in Examples […] in a saline solution containing 1% by weight of Tween 80 to have a concentration of 5mg/mℓ and diluting it serially with the saline solution. The test solutions were administered orally in a dose of 0.3mℓ per 30g of body weight, using the 5 ICR mice for each test. 60 minutes later, 0.9% acetic acid solution was administered intraperitoneally in a dose of 0.1mℓ per 30g of body weight. 3 minutes thereafter, the number of writhings generated during a period of 10 minutes due to the administration of acetic acid was measured. For comparison purpose, initially, saline solution alone was administered orally to the control group. 60 minutes thereafter, 0.9% acetic acid solution was administered intraperitoneally to the control group.
(§3) The number of writhings suffered by the test group was compared with that of the control group; and the analgesic effect was measured in terms of the percentage of inhibition of writhing(I. W.). I. W. (%) =(A - B)/(A)x 100 [formula] A : the number of writhings suffered by the control group, B : the number of writhings suffered by the test group.
(§4) These ED50 values for the test compounds are shown in the last column of Table 1.
(In writhing tests, fewer writhes than in controls are read as antinociception.)

Data set [2] concerns KTC-ICR mice. Briefly: phenyl-1,4-benzoquinone(PBQ) induced writhing test. The note with it: Mus musculus; oral; 0.02% PBQ i.p. 60 minutes later; writhings during 5 minutes; mice 10 to 15g; Examples 33 to 46. As for the experimental part: as §1, §2
Alternatively, solutions for the PBQ induced writhing test were prepared by dissolving one of the products synthesized in Examples 33 to 46 in a mixture of Tween 80, alcohol and distilled water (1:5:94); and administered orally to the 5 ICR mice for each test in a dose of 0.3mℓ per 30g of body weight. 60 minutes later, 0.02% PBQ solution was administered intraperitoneally in a dose of 0.1mℓ per 30g of body weight of the test animals. 5 minutes thereafter, at the temperature of 40°C, the number of writhings occurred during a period of 5 minutes due to the PBQ solution administered was measured. For comparison, only the mixture of Tween 80, alcohol and distilled water was administered orally to the control group; and, after 60 minutes, the PBQ solution was administered intraperitoneally to the control group in the same manner as mentioned above.
as §3, §4

In a further data set the test system is test animals. In words: Behavior analysis (side-effect or toxicity scores). Further details: key to Sedation / Dyspnoea / Vasodilation / Convulsion / Salivation / Urination: behavior score; higher number = greater side effects. As to conditions: behavior score; for Convulsion / Salivation / Urination: normal value 0; for Dyspnoea / Ptosis / Sedation / Vasodilation: normal value 4. An excerpt: In order to monitor a harmful side-effect or toxicity of the compounds having the formula(I), various behavioral changes in the test animals were observed. […] The higher the number is, the greater the side effects are.

Consider `COc1cc(CNC(=O)CCCC/C=C/C(C)C)ccc1O` [Capsaicin, trans-8-methyl-N-vanillyl-6-nonenamide, reference compound], for which the “Inhibition(%)” value in the data set with mice (mouse, in vivo, 25 mg/kg) came to 90%.
Consider `COc1cc(CC(=O)NCCCc2ccc(C)c(C)c2)ccc1OCCN` [Example 1-l-tartarate], for which the “Inhibition(%)” value is reported as 50% in the data set on mice (p. o., dose 1.25 mg/Kg) and 90% in the data set on mice (p. o., dose 2.5 mg/Kg).
For orientation: ED50 means the midpoint of the dose-response relation. For the compound `Cc1ccc(CCCNC(=O)Cc2ccc(OCCN)cc2)cc1C` [Example 2], the ED50 in the data set with KTC-ICR mice [1] was found to be 3.98 mg/kg.
On the same count and under the same terms, to `Cc1ccc(CCCNC(=O)Cc2ccc(OCCN)c(F)c2)cc1C` [Example 3] belongs 2.95 mg/kg.
The same measure, in the same setting: then `Cc1ccc(CCCNC(=O)Cc2ccc(OCCN)c(Cl)c2)cc1C` [Example 4], with 4.78 mg/kg.
On the same count and under the same terms, to `Cc1cccc(CCCNC(=O)Cc2ccc(OCCN)cc2)c1` [Example 6] belongs 26.3 mg/kg.
`Cc1cccc(CCCNC(=O)Cc2ccc(OCCN)c(F)c2)c1` [Example 7] displayed an ED50 in the data set with KTC-ICR mice [1] of 2.3 mg/kg.
In the data set with KTC-ICR mice [1], `Cc1cccc(CCCNC(=O)Cc2ccc(OCCN)c(Cl)c2)c1` [Example 8] registered an ED50 of 42.6 mg/kg.
Still for that read-out and setting: to `COc1cc(CC(=O)NCCCc2ccc(C)cc2)ccc1OCCN` [Example 9] belongs 1.73 mg/kg.
Still for that read-out and setting: then `Cc1ccc(CCCNC(=O)Cc2ccc(OCCN)cc2)cc1` [Example 10], with 7.9 mg/kg; and `Cc1ccc(CCCNC(=O)Cc2ccc(OCCN)c(Cl)c2)cc1` [Example 12], with 4.7 mg/kg.
In the case of `COc1cc(CC(=O)NCCCc2cc(C)cc(C)c2)ccc1OCCN` [Example 13], in the data set on KTC-ICR mice [1], the ED50 is 4.6 mg/kg.
`Cc1cc(C)cc(CCCNC(=O)Cc2ccc(OCCN)cc2)c1` [Example 14] showed a 50% effective dose (ED50) in the data set on KTC-ICR mice [1] of 3.16 mg/kg.
In turn, `Cc1cc(C)cc(CCCNC(=O)Cc2ccc(OCCN)c(Cl)c2)c1` [Example 16] gave an ED50 with KTC-ICR mice [1] of 123 mg/kg.
`COc1cc(CC(=O)NCCc2cc(C)cc(C)c2)ccc1OCCN` [Example 17]: the ED50 with KTC-ICR mice [1] is 0.77 mg/kg.
Take `COc1cc(CC(=O)NCCCc2ccc(Cl)cc2)ccc1OCCN` [Example 18, N-{3-(4-chlorophenyl)propyl}-4-(2-aminoethoxy)-3-methoxyphenylacetamide]: it took a dose of 0.4 mg/kg to reach the 50% effect level with KTC-ICR mice [1] (ED50).
The same measure, in the same setting: to `NCCOc1ccc(CC(=O)NCCCc2ccc(Cl)cc2)cc1` [Example 19, N-{3-(4-chlorophenyl)propyl}-4-(2-aminoethoxy)phenylacetamide] belongs 0.03 mg/kg.
The same measure, in the same setting: then `NCCOc1ccc(CC(=O)NCCCc2ccc(Cl)cc2)cc1F` [Example 20, N-{3-(4-chlorophenyl)propyl}-4-(2-aminoethoxy)-3-fluorophenylacetamide], with 0.07 mg/kg; and `NCCOc1ccc(CC(=O)NCCCc2ccc(Cl)cc2)cc1Cl` [Example 21, N-{3-(4-chlorophenyl)propyl}-4-(2-aminoethoxy)-3-chlorophenylacetamide], with 0.04 mg/kg; and `COc1cc(CC(=O)NCCCc2ccc(Cl)c(Cl)c2)ccc1OCCN` [Example 24, N-{3-(3,4-dichlorophenyl)propyl}-4-(2-aminoethoxy)-3-methoxyphenylacetamide], with 0.66 mg/kg.
`COc1cc(CC(=O)NCCCc2ccc3c(c2)OCO3)ccc1OCCN` [Example 25, N-{3-(3,4-methylenedioxyphenyl)propyl}-4-(2-aminoethoxy)-3-methoxyphenylacetamide]: the ED50 with KTC-ICR mice [1] worked out at 0.8 mg/kg.
In the data set on KTC-ICR mice [1], `COc1cc(CC(=O)NCCCc2cccc(C(F)(F)F)c2)ccc1OCCN` [Example 26, N-{3-(3-trifluoromethylphenyl)propyl}-4-(2-aminoethoxy)-3-methoxyphenylacetamide] returned an ED50 of 1.54 mg/kg.
As to `COc1cccc(CCCNC(=O)Cc2ccc(OCCN)c(OC)c2)c1` [Example 27, N-{3-(3-methoxyphenyl)propyl}-4-(2-aminoethoxy)-3-methoxyphenylacetamide], it took a dose of 1.25 mg/kg to reach the 50% effect level in the data set on KTC-ICR mice [1] (ED50).
Regarding `COc1cc(CC(=O)NCCCc2cccc(OCc3ccccc3)c2)ccc1OCCN` [Example 28, N-{3-(3-benzyloxyphenyl)propyl}-4-(2-aminoethoxy)-3-methoxyphenylacetamide], the ED50 with KTC-ICR mice [1] was 28.8 mg/kg.
For the compound `COc1cc(CC(=O)NCCCCc2cccc(C)c2)ccc1OCCN` [Example 30], in the data set with KTC-ICR mice [1], the ED50 is 1.54 mg/kg.
As to `Cc1cccc(CCCCNC(=O)Cc2ccc(OCCN)cc2)c1` [Example 31], it took a dose of 3.3 mg/kg to reach the 50% effect level with KTC-ICR mice [1] (ED50).
In the data set with KTC-ICR mice [1], `Cc1ccc(CCCCNC(=O)Cc2ccc(OCCN)c(F)c2)cc1C` [Example 32] returned an ED50 of 1.44 mg/kg.
For the compound `Cc1ccc(CCCNC(=O)Cc2ccc(OCCN)c(O)c2)cc1C` [Example 33, N-{3-(3,4-dimethylphenyl)propyl}-4-(2-aminoethoxy)-3-hydroxyphenylacetamide], in the data set on KTC-ICR mice [2], the 50% effective dose (ED50) is 0.49 mg/kg. In addition, in the data set with test animals (dose 0.2mg/Kg), the Convulsion is 0, the Salivation was found to be 0, the Urination is recorded as 0 and the Dyspnoea is 4. In the data set with test animals (dose 0.2mg/Kg), the Ptosis turned out to be 4, the Sedation worked out at 4 and the Vasodilation stood at 4. In the data set on test animals (dose 0.6mg/Kg), the Convulsion is listed as 0, the Salivation came to 0, the Urination worked out at 0 and the Dyspnoea stood at 4. Also, in the data set with test animals (dose 0.6mg/Kg), the Ptosis was 4, the Sedation is given as 5 and the Vasodilation is recorded as 4. In the data set with test animals (dose 2.0mg/Kg), this compound returned a Convulsion of 0, a Salivation of 0, a Urination of 0 and a Dyspnoea of 5. In the data set on test animals (dose 2.0mg/Kg), this compound yielded a Ptosis of 6, a Sedation of 7 and a Vasodilation of 4.
Regarding `NCCOc1ccc(CC(=O)NCCCc2ccc(F)cc2)cc1N` [Example 40-HCl], the “Inhibition(%)” value in the data set with mice (p. o., dose 50 mg/Kg) was determined as 67%.
In the case of `NCCOc1ccc(CC(=O)NCCCc2cccc(C(F)(F)F)c2)cc1N` [Example 42, N-{3-(3-trifluoromethylphenyl)propyl}-4-(2-aminoethoxy)-3-aminophenylacetamide], in the data set on test animals (dose 11.1mg/Kg), the Convulsion is listed as 0, the Salivation is listed as 0, the Urination came to 0 and the Dyspnoea is 4. In the data set with test animals (dose 11.1mg/Kg), this compound came in with a Ptosis of 4, a Sedation of 4 and a Vasodilation of 4. Further, in the data set with test animals (dose 33.3mg/Kg), the Convulsion turned out to be 0, the Salivation is reported as 0, the Urination is recorded as 0 and the Dyspnoea is 4. In addition, in the data set on test animals (dose 33.3mg/Kg), the Ptosis was 4, the Sedation was 4 and the Vasodilation was 4. In the data set on test animals (dose 100mg/Kg), this compound displayed a Convulsion of 0, a Salivation of 0, a Urination of 0 and a Dyspnoea of 4. In the data set on test animals (dose 100mg/Kg), this compound gave a Ptosis of 7, a Sedation of 7 and a Vasodilation of 4. For the same compound, in the data set on mice (p. o., dose 100 mg/Kg), the “Inhibition(%)” value came out at 40%.
Regarding `Cc1ccc(CCCNC(=O)Cc2ccc(OCCN)c([N+](=O)[O-])c2)cc1C` [Example 43, N-{3-(3,4-dimethylphenyl)propyl}-4-(2-aminoethoxy)-3-nitrophenylacetamide], the ED50 in the data set on KTC-ICR mice [2] was 22.5 mg/kg.
As for `CN1C(C(=O)Nc2ccccn2)=C(O)c2ccccc2S1(=O)=O` [Piroxicam, reference compound], the “Inhibition(%)” value in the data set on mice (p. o., dose 100 mg/Kg) was determined as 0%.

For the origin of these results see EP0525360B1, “Novel phenylacetamide derivatives and processes for the preparation thereof” (KOREA RESEARCH INSTITUTE OF CHEMICAL TECHNOLOGY, priority 1991, dated 1993).
